Read-outs that look alike come from different tables or passages of the source.
Tests used:
[1] = system: SMN FL and SMN Δ7 in spinal muscular atrophy (SMA) patient fibroblasts (GM03813, Coriell); assay: Quantitative splicing assay (SMN), qPCR; format: cell-based, human; settings: Homo sapiens, Fibroblast, 24 h, read-out: SMN2 Splicing FL EC50
Procedure: Spinal muscular atrophy (SMA) patient fibroblasts (GM03813, Coriell) are plated in 96-well plates at 50,000 cells/well. […] Treated cells are lysed and cDNA synthesized using the Fast Advanced Cells-to-Ct kit (Thermofisher A35378) according to the manufacturer's instructions. 2 μL of each cDNA are used in qPCR reactions. […] Reactions are run in a Quant Studio 6 qPCR instrument with default settings.

[2] = system: mHTT protein in GM04724 (CAG 70/20) Huntington's disease patient lymphoblast cells; assay: mHTT protein assay, 2B7-MW1 assay via Mesoscale Discovery (MSD); format: cell-based, human
How it was run: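 Signal from the 2B7-MW1 antibody pair on MSD, rising with polyQ length and smaller HTT fragments, measured mHTT after 48 h compound exposure (0.6 nM–10 μM) in GM04724 cells. A parallel replicate plate gave CellTiter Glo viability.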

MDR1 (P-gp) = assay: Blood-brain-barrier (BBB) penetration potential via MDCK-MDR1 permeability assay; settings: dog; for Papp A→B at 120 min, 5 μM: MDCK-MDR1, pH 7.4, MDCK-MDR1: Papp A-B; for Papp B→A at 120 min, 5 μM: MDCK-MDR1, pH 7.4, MDCK-MDR1: Papp B-A
MDR1 = assay: as above; settings: dog, MDCK-MDR1, pH 7.4, MDCK-MDR1: Efflux
[3] = system: MDR1-MDCK cell monolayers; assay: as above
[4] = system: SMN protein in spinal muscular atrophy (SMA) patient fibroblasts (GM03813, Coriell); assay: SMN protein assay, Mesoscale Discovery (MSD); format: cell-based, human; settings: read-out: SMN2 protein EC50
How it was run: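 Absolute SMN levels were quantified by MSD against an SMN protein standard curve (1 μg/ml to 19.5 pg/ml) run on each plate. Samples were lysates of GM03813 patient fibroblasts (7000 cells/well) treated 48 hours with compound doses from 2.5 μM down to 0.6 nM.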

[5] = Quantitative splicing assay (HTT), qPCR; format: cell-based, human; settings: Homo sapiens, GM04724, 24 h, GM04724 lymphoblasts, read-out: HTT Splicing: E49-50 EC50
How it was run: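 TaqMan qPCR on cell-lysate cDNA quantifies cryptic-exon inclusion from HTT intron 49. Lymphoblasts plated at 50,000 cells/well had received compound for 24 h, 0.15 nM-2.5 uM range, 0.1% DMSO.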

[6] = SMA patient fibroblasts GM03813, 24 h, qPCR
[7] = GM04724 Huntington's disease patient lymphoblasts
[8] = SMA patient fibroblasts GM03813, 48 hours, MSD
[9] = SMA patient fibroblasts (GM03813)
[10] = GM04724 (CAG 70/20) Huntington's disease patient lymphoblasts
[11] = SMA patient fibroblasts (GM03813), 48 hours

Row | SMILES | EC50 [1, 6] | EC50 [2, 7] | Papp A→B at 120 min, 5 μM (MDR1 (P-gp); A-B direction) | Papp B→A at 120 min, 5 μM (MDR1 (P-gp); B-A direction) | efflux ratio at 120 min, 5 μM (MDR1; efflux ratio) | MDCK-MDR1: % Recov A-B ([3]; A-B direction) | MDCK-MDR1: % Recov B-A ([3]; B-A direction) | EC50 [4, 8] | EC50 ([5]; qPCR) | EC50 [1, 9] | EC50 [2, 10] | Papp A→B at 120 min, 5 μM (MDR1 (P-gp); A-B) | Papp B→A at 120 min, 5 μM (MDR1 (P-gp); B-A) | efflux ratio at 120 min, 5 μM (MDR1) | MDCK-MDR1: % Recov A-B ([3]; A-B) | MDCK-MDR1: % Recov B-A ([3]; B-A) | EC50 [4, 11] | EC50 [5]
1 | CN(c1ccc(-c2cc(F)c(-c3ccn(C)c(=O)c3)cc2O)nn1)[C@H]1C[C@@H]2CC[C@@H](N2)[C@H]1F [Compound 1B, 4-(2-fluoro-4-(6-(((1R,2R,3S,5S)-2-fluoro-8-azabicyclo[3.2.1]octan-3-yl)(methyl)amino)pyridazin-3-yl)-5-hydroxyphenyl)-1-methylpyridin-2(1H)-one] | 0.01 to 15 nM | 0.01 to 15 nM | 0.49 ×10⁻⁶ cm/s | 40.4 ×10⁻⁶ cm/s | 83 | 97% | 98% | 0.01 to 15 nM | 0.01 to 15 nM | – | – | – | – | – | – | – | – | –
2 | CN(c1ccc(-c2cc3ccn(C)c(=O)c3cc2O)nn1)[C@@H]1C[C@H]2CC[C@H](N2)[C@@H]1F [Compound 84A, 6-(6-(((1S,2S,3R,5R)-2-fluoro-8-azabicyclo[3.2.1]octan-3-yl)(methyl)amino)pyridazin-3-yl)-7-hydroxy-2-methylisoquinolin-1(2H)-one] | 16 to 50 nM | 0.01 to 15 nM | 0.9 ×10⁻⁶ cm/s | 52 ×10⁻⁶ cm/s | 58 | 92% | 90% | 0.01 to 15 nM | 16 to 50 nM | – | – | – | – | – | – | – | – | –
3 | CN(c1ccc(-c2ccc(-c3cc[nH]n3)cc2O)nn1)[C@@H]1C[C@H]2CC[C@H](N2)[C@@H]1F (single isomer, unassigned) [Compound 33A] | 51 to 100 nM | 16 to 50 nM | 1.33 ×10⁻⁶ cm/s | 40.7 ×10⁻⁶ cm/s | 31 | 95% | 105% | 16 to 50 nM | 16 to 50 nM | – | – | – | – | – | – | – | – | –
4 | CN(c1ccc(-c2cc3cccnc3cc2O)nn1)[C@H]1C[C@@H]2CC[C@@H](N2)[C@H]1F [Compound 74B, 6-(6-(((1R,2R,3S,5S)-2-fluoro-8-azabicyclo[3.2.1]octan-3-yl)(methyl)amino)pyridazin-3-yl)quinolin-7-ol] | 16 to 50 nM | 0.01 to 15 nM | 3 ×10⁻⁶ cm/s | 56 ×10⁻⁶ cm/s | 19 | 77% | 90% | 0.01 to 15 nM | 51 to 100 nM | – | – | – | – | – | – | – | – | –
5 | CN(c1ccc(-c2cc3c(=O)n(C)ccc3cc2O)nn1)[C@H]1C[C@@H]2CC[C@H]([C@H]1F)N2C [Compound 98B, 7-(6-(((1R,2R,3S,5S)-2-fluoro-8-methyl-8-azabicyclo[3.2.1]octan-3-yl)(methyl)amino)pyridazin-3-yl)-6-hydroxy-2-methylisoquinolin-1(2H)-one] | – | – | – | – | – | – | – | – | – | 16 to 50 nM | 16 to 50 nM | 5.01 ×10⁻⁶ cm/s | 52.6 ×10⁻⁶ cm/s | 10 | 88% | 87% | 16 to 50 nM | 16 to 50 nM
6 | CN(c1ccc(-c2cc3ncn(C)c(=O)c3cc2O)nn1)[C@H]1C[C@@H]2CC[C@@H](N2)[C@H]1F [Compound 51B, 7-(6-(((1R,2R,3S,5S)-2-fluoro-8-azabicyclo[3.2.1]octan-3-yl)(methyl)amino)pyridazin-3-yl)-6-hydroxy-3-methylquinazolin-4(3H)-one] | 0.01 to 15 nM | 0.01 to 15 nM | 0.91 ×10⁻⁶ cm/s | 50.3 ×10⁻⁶ cm/s | 55 | 88% | 90% | 0.01 to 15 nM | 0.01 to 15 nM | – | – | – | – | – | – | – | – | –
7 | CN(c1ccc(-c2cc3c(=O)n(C)ccc3cc2O)nn1)[C@@H]1C[C@H]2CC[C@H](N2)[C@@H]1F [Compound 83A, 7-(6-(((1S,2S,3R,5R)-2-fluoro-8-azabicyclo[3.2.1]octan-3-yl)(methyl)amino)pyridazin-3-yl)-6-hydroxy-2-methylisoquinolin-1(2H)-one] | 0.01 to 15 nM | 0.01 to 15 nM | 0.98 ×10⁻⁶ cm/s | 43.5 ×10⁻⁶ cm/s | 44 | 89% | 83% | 0.01 to 15 nM | 0.01 to 15 nM | – | – | – | – | – | – | – | – | –
8 | CN(c1ccc(-c2cc3ccn(C)c(=O)c3cc2O)nn1)[C@H]1C[C@@H]2CC[C@@H](N2)[C@H]1F [Compound 84B, 6-(6-(((1R,2R,3S,5S)-2-fluoro-8-azabicyclo[3.2.1]octan-3-yl)(methyl)amino)pyridazin-3-yl)-7-hydroxy-2-methylisoquinolin-1(2H)-one] | 0.01 to 15 nM | 0.01 to 15 nM | 1.06 ×10⁻⁶ cm/s | 50.9 ×10⁻⁶ cm/s | 48 | 112% | 76% | 0.01 to 15 nM | 0.01 to 15 nM | – | – | – | – | – | – | – | – | –
9 | Cc1nc2cc(O)c(-c3ccc(N(C)[C@H]4C[C@@H]5CC[C@@H](N5)[C@H]4F)nn3)cc2s1 [Compound 116B, 6-(6-(((1R,2R,3S,5S)-2-fluoro-8-azabicyclo[3.2.1]octan-3-yl)(methyl)amino)pyridazin-3-yl)-2-methylbenzo[d]thiazol-5-ol] | – | – | – | – | – | – | – | – | – | 0.01 to 15 nM | 0.01 to 15 nM | 6.29 ×10⁻⁶ cm/s | 43.2 ×10⁻⁶ cm/s | 7 | 77% | 80% | 0.01 to 15 nM | 0.01 to 15 nM
10 | CN(c1ccc(-c2cc(F)c(-c3ccoc(=O)c3)cc2O)nn1)[C@@H]1C[C@H]2CC[C@H](N2)[C@@H]1F [Compound 17A, 4-(2-fluoro-4-(6-(((1S,2S,3R,5R)-2-fluoro-8-azabicyclo[3.2.1]octan-3-yl)(methyl)amino)pyridazin-3-yl)-5-hydroxyphenyl)-2H-pyran-2-one] | 0.01 to 15 nM | 0.01 to 15 nM | 2.08 ×10⁻⁶ cm/s | 39.2 ×10⁻⁶ cm/s | 19 | 57% | 81% | 0.01 to 15 nM | 0.01 to 15 nM | – | – | – | – | – | – | – | – | –
11 | CN(c1ccc(-c2ccc(-n3ccnc3)cc2O)nn1)[C@H]1C[C@@H]2CC[C@@H](N2)[C@H]1F [Compound 4B, 2-(6-(((1R,2R,3S,5S)-2-fluoro-8-azabicyclo[3.2.1]octan-3-yl)(methyl)amino)pyridazin-3-yl)-5-(1H-imidazol-1-yl)phenol] | 0.01 to 15 nM | 0.01 to 15 nM | 2.82 ×10⁻⁶ cm/s | 49.7 ×10⁻⁶ cm/s | 18 | 87% | 85% | 0.01 to 15 nM | 0.01 to 15 nM | – | – | – | – | – | – | – | – | –
12 | CN(c1ccc(-c2cc3c(=O)n(C)ccc3cc2O)nn1)[C@H]1C[C@@H]2CC[C@@H](N2)[C@H]1F [Compound 83B, 7-(6-(((1R,2R,3S,5S)-2-fluoro-8-azabicyclo[3.2.1]octan-3-yl)(methyl)amino)pyridazin-3-yl)-6-hydroxy-2-methylisoquinolin-1(2H)-one] | 0.01 to 15 nM | 0.01 to 15 nM | 1.43 ×10⁻⁶ cm/s | 44.4 ×10⁻⁶ cm/s | 31 | 77% | 72% | 0.01 to 15 nM | 0.01 to 15 nM | – | – | – | – | – | – | – | – | –

Source: patent US12509460B2 (Skyhawk Therapeutics, Inc., priority 2019, dated 2025)
